These results are taken from article PMC8151276, “An Integrated Approach toward NanoBRET Tracers for Analysis of GPCR Ligand Engagement” (Molecules, 2021).

Format in all cases: binding
For one assay, the target named is T1, TACR3 (Homo sapiens, UniProt P29371).
T1 construct: purchased Promega (in-house HiBiT-GPCR construct library, NanoBRET)
T1 sequence (P29371 1-465): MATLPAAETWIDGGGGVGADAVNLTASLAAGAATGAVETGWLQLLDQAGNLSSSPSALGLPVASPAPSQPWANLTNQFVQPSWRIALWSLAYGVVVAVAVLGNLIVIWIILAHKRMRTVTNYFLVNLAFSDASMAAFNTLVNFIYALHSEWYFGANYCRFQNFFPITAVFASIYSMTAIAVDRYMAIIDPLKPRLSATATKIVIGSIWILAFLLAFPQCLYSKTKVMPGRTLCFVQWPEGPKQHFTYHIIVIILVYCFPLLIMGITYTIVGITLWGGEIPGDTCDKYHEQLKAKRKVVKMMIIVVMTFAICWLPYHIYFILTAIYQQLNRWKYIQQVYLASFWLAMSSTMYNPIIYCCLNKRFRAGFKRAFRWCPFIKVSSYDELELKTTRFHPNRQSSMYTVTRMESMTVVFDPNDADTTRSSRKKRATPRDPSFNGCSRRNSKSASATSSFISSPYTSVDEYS
Briefly: NanoBRET screen HiBiT-TACR3 in HEK293. On the procedure: (§1) Each tracer candidate was screened across the entire library of HiBiT-GPCR constructs using NanoBRET as the detection modality. As depicted in Figure 4A, the specificity of interactions was evaluated through decrease in BRET due to competitive displacement of a bound tracer by excess parental compound. Each tracer was analyzed for binding to each HiBiT-GPCR fusion in the absence and in the presence of competing parental compound. Briefly, HEK293 cells were transfected with HiBiT-GPCR constructs diluted into promoterless DNA to reduce expression and maximize translocation to the cell surface. Each tracer candidate was then screened at concentrations of 1 μM and 0.1 μM across cells expressing these fusions. Cells were treated for 1.5 h with tracer either alone or in the presence of 20 μM competing parental compound (i.e., control). BRET was measured upon addition of purified LgBiT and subsequent complementation with HiBiT genetically fused to a GPCR. The specificity of interactions was assessed through a decrease in BRET signal due to competitive displacement of the bound tracer. To further gauge the robustness of these interactions, the fold response over the control (i.e., BRETtracer/BRETcontrol) was calculated. We chose a 1.5-fold response, which translates to ≥7-fold signal over noise as the minimal threshold required to score an interaction as positive. […]. Below we highlight the screening results obtained for our exemplary fluorescent tracers based on Clozapine, Amitriptyline and AZD1283.
(§2) HiBiT-GPCR DNA constructs were diluted in 10 mM Tris pH 8 to a final concentration of 0.01 μg/μL, arrayed in 96-well plates and stored at −20 °C. For transfection, HEK293 cells were suspended in Opti-MEM (without phenol red) supplemented with 2% fetal bovine serum (Seradigm) and 100 units/mL penicillin–streptomycin (Gibco) at a final concentration of 220,000 cells/mL and dispensed into white 96-well plates at 90 μL/well. Subsequent transfections and screens were carried using an Agilent Bravo Automated Liquid Handling Platform. First, the 96-well HiBiT DNA arrays were diluted 25-fold in Opti-MEM (without serum or phenol red) to a final concentration of 0.0004 μg/μL and 20 μL of the diluted DNAs were transferred into new 96-well plates. Next, promoterless carrier DNA (1 μg/μL) was diluted 25-fold (0.04 μg/μL) and then dispensed into the diluted arrays at 20 μL/well. Following brief mixing, Viafect transfection reagent (Promega) diluted 16-fold into Opti-MEM was dispensed into the plates at 40 μL/well. After mixing by pipetting, plates were incubated for 10 min on the pipetting station deck. The DNA-transfection reagent complexes were then added to plates containing cells. To facilitate the screen, 10 μL of DNA-transfection reagent complexes were added in duplicates to the top 4 and bottom 4 rows, resulting in two identical 48-well arrays per plate. Plates with transfected cells were incubated for 18–20 h at 37 °C/5% CO2. A screen of each tracer across the entire library using two different concentrations requires duplicate plates of transfected cells. Depending on the number of tracers being screened, transfections can be scaled up using the same ratios. The next day, for each tracer, four 20× screening solutions in tracer dilution buffer (Promega) were prepared: two duplicates at final concentration of 20 μM and two duplicates at a final concentration of 2 μM. A competing unmodified compound was added to one of each duplicate at a final concentration of 400 μM. The four resulting solutions were diluted 4-fold in Opti-MEM without serum or phenol red to generate 5× solutions (5 µM and 0.5 µM tracer +/− 100 μM competing compound). To screen the library, a BioTek MultiFlo FX liquid dispenser was used to dispense 22.5 µL of tracer solution to the top 4 rows and 22.5 µL tracer + competing compound solution to the 4 bottom rows. Plates were briefly mixed on an orbital shaker and incubated for 1.5 h at room temperature. […]
In general terms: BRET reads energy transfer from a luciferase to a nearby fluorophore.

The next assay has as its target T2, TACR2 (Homo sapiens, UniProt P21452).
T2 construct: purchased Promega (in-house HiBiT-GPCR construct library, NanoBRET)
T2 sequence (P21452 1-398): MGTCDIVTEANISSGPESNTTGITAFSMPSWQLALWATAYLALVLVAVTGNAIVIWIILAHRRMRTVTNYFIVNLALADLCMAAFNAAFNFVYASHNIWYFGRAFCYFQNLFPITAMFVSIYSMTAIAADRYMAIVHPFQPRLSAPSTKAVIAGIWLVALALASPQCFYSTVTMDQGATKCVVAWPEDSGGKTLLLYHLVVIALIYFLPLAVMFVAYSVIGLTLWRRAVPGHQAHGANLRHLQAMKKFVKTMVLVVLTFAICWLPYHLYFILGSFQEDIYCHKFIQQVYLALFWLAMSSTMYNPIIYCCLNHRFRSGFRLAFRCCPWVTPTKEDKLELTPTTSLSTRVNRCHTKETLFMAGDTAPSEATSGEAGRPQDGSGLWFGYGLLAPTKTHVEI
Briefly: NanoBRET screen HiBiT-TACR2 in HEK293. On the procedure:
as §1, §2

A further assay concerns the target T3, SSTR4 (Homo sapiens, UniProt P31391).
T3 construct: purchased Promega (in-house HiBiT-GPCR construct library, NanoBRET)
Nature of the assay: NanoBRET screen HiBiT-SSTR4 in HEK293. As to the method: as §1, §2

T3 sequence (P31391 whole entry): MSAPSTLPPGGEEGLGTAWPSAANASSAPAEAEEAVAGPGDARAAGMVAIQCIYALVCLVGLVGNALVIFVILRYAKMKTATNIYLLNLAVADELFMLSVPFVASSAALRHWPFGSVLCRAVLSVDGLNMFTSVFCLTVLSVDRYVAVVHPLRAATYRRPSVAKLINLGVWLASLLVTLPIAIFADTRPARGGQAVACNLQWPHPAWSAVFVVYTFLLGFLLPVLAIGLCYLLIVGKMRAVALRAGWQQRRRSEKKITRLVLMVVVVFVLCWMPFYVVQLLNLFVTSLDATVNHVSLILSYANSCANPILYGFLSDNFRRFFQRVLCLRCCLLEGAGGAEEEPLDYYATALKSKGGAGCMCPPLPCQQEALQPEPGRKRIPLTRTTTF

As to `O=C(CCc1ccc2n1[B-](F)(F)[N+]1=C(c3ccc[nH]3)C=CC1=C2)NCc1ccc(C(=O)NCCOCCC(=O)N[C@@H]2CC[C@@]3(O)[C@H]4Cc5ccc(O)c6c5[C@@]3(CCN4CC3CC3)[C@H]2O6)cc1` [Naltrexone-3-NB590], the “NanoBRET Fold Response” value is recorded as 1.19 on TACR3 (TACR3, tracer 0.1μM); 0.93 at TACR3 (TACR3, tracer 1μM); 0.82 on TACR2 (TACR2, tracer 0.1μM); 0.91 at TACR2 (TACR2, tracer 1μM); 0.99 on SSTR4 (SSTR4, tracer 0.1μM); 0.90 on SSTR4 (SSTR4, tracer 1μM).
For `CN1CCN(C2=Nc3cc(Cl)ccc3N(CC(=O)NCCOCCOCCOCCOCCNC(=O)CCc3ccc4n3[B-](F)(F)[N+]3=C(c5ccc[nH]5)C=CC3=C4)c3ccccc32)CC1` [Clozapine-c-2-NB590], the “NanoBRET Fold Response” value is 1.00 at TACR3 (TACR3, 0.1μM tracer); 1.00 on TACR3 (TACR3, 1μM tracer); 0.93 at TACR2 (TACR2, 0.1μM tracer); 0.88 at TACR2 (TACR2, 1μM tracer); 1.03 at SSTR4 (SSTR4, 0.1μM tracer); 1.00 on SSTR4 (SSTR4, 1μM tracer).
`O=C(CCOCCOCCOCCOCCNC(=O)CCc1ccc2n1[B-](F)(F)[N+]1=C(c3ccc[nH]3)C=CC1=C2)NCCCN1CCN(C2=Nc3cc(Cl)ccc3Nc3ccccc32)CC1` [Clozapine-a-2-NB590]: the “NanoBRET Fold Response” value is 0.99 at TACR3 (TACR3, 0.1μM tracer); 1.21 at TACR3 (TACR3, 1μM tracer); 1.02 on TACR2 (TACR2, 0.1μM tracer); 0.89 at TACR2 (TACR2, 1μM tracer); 1.11 at SSTR4 (SSTR4, 0.1μM tracer); 1.20 on SSTR4 (SSTR4, 1μM tracer).
As for `CCOC(=O)c1cc(C#N)c(N2CCC(C(=O)NS(=O)(=O)Cc3ccccc3/C=C/C(=O)NCCNC(=O)CCc3ccc4n3[B-](F)(F)[N+]3=C(c5ccc[nH]5)C=CC3=C4)CC2)nc1C` [AZD1283-1-NB590], the “NanoBRET Fold Response” value on TACR3 (TACR3, 0.1μM) amounted to 1.10; at TACR3 (TACR3, 1μM) it was 1.10; on TACR2 (TACR2, 0.1μM) it was 1.09; on TACR2 (TACR2, 1μM), 1.04; at SSTR4 (SSTR4, 0.1μM), 1.10; at SSTR4 (SSTR4, 1μM), 1.07.
Turning to `COc1ccc2[nH]c(-c3ccc(CNC(=O)CCOCCOCCOCCOCCNC(=O)CCc4ccc5n4[B-](F)(F)[N+]4=C(c6ccc[nH]6)C=CC4=C5)cc3)c(CCNC(C)=O)c2n1` [AzomelatoninICO9-2-NB590], the “NanoBRET Fold Response” value on TACR3 (0.1μM tracer) came out at 1.23; at TACR3 (1μM tracer), 1.00; on TACR2 (0.1μM tracer) it was 0.37; at TACR2 (1μM tracer), 0.84; on SSTR4 (0.1μM tracer), 0.84; at SSTR4 (1μM tracer) it was 0.98.
`CCCn1c(=O)c2[nH]c(-c3ccc(OCC(=O)NCCNC(=O)CCOCCNC(=O)c4ccc(CNC(=O)CCc5ccc6n5[B-](F)(F)[N+]5=C(c7ccc[nH]7)C=CC5=C6)cc4)cc3)nc2n(CCC)c1=O` [XAC-3-NB590]: the “NanoBRET Fold Response” value stood at 1.06 on TACR3 (TACR3, tracer 0.1μM); 1.01 at TACR3 (TACR3, tracer 1μM); 0.96 on TACR2 (TACR2, tracer 0.1μM); 1.21 on TACR2 (TACR2, tracer 1μM); 1.01 at SSTR4 (SSTR4, tracer 0.1μM); 0.93 on SSTR4 (SSTR4, tracer 1μM).
Turning to `COc1ccccc1N1CCN(CCCCN2C(=O)c3ccc(CNC(=O)CCOCCNC(=O)c4ccc(CNC(=O)CCc5ccc6n5[B-](F)(F)[N+]5=C(c7ccc[nH]7)C=CC5=C6)cc4)cc3C2=O)CC1` [NAN-190-3-NB590], the “NanoBRET Fold Response” value on TACR3 (TACR3, tracer 0.1μM) was found to be 0.97; at TACR3 (TACR3, tracer 1μM), 0.96; at TACR2 (TACR2, tracer 0.1μM), 1.12; at TACR2 (TACR2, tracer 1μM), 1.09; on SSTR4 (SSTR4, tracer 0.1μM) it was 0.90; on SSTR4 (SSTR4, tracer 1μM), 1.05.
For `O=C(CCc1ccc2n1[B-](F)(F)[N+]1=C(c3ccc[nH]3)C=CC1=C2)NCc1ccc(C(=O)NCCOCCOCCNCC(O)COc2cccc3ccccc23)cc1` (stereo not shown) [Propranolol-3-NB590], the “NanoBRET Fold Response” value is given as 1.06 on TACR3 (TACR3, 0.1μM); 0.99 on TACR3 (TACR3, 1μM); 1.01 on TACR2 (TACR2, 0.1μM); 1.01 at TACR2 (TACR2, 1μM); 1.02 on SSTR4 (SSTR4, 0.1μM); 0.98 at SSTR4 (SSTR4, 1μM).
Take `COc1ccc2c(n1)c(CCNC(C)=O)cn2CCNC(=O)CCc1ccc2n1[B-](F)(F)[N+]1=C(c3ccc[nH]3)C=CC1=C2` [Azamelatonin-1-NB590]: the “NanoBRET Fold Response” value at TACR3 (0.1μM tracer) is on record as 1.06; on TACR3 (1μM tracer), 0.87; at TACR2 (0.1μM tracer), 0.81; on TACR2 (1μM tracer), 0.91; on SSTR4 (0.1μM tracer), 0.93; at SSTR4 (1μM tracer), 1.01.
`O=C(CCOCCOCCOCCOCCNC(=O)CCc1ccc2n1[B-](F)(F)[N+]1=C(c3ccc[nH]3)C=CC1=C2)NCCCN1CCN(C2=Nc3ccccc3Oc3ccc(Cl)cc32)CC1` [Loxapine-a-2-NB590]: the “NanoBRET Fold Response” value on TACR3 (TACR3, tracer 0.1μM) turned out to be 1.08; on TACR3 (TACR3, tracer 1μM) it was 1.11; at TACR2 (TACR2, tracer 0.1μM), 0.86; at TACR2 (TACR2, tracer 1μM), 0.64; on SSTR4 (SSTR4, tracer 0.1μM), 1.00; on SSTR4 (SSTR4, tracer 1μM), 1.09.
As for `COc1ccccc1N1CCN(CCCCN2C(=O)c3ccc(CNC(=O)CCOCCOCCOCCOCCNC(=O)CCc4ccc5n4[B-](F)(F)[N+]4=C(c6ccc[nH]6)C=CC4=C5)cc3C2=O)CC1` [NAN-190-2-NB590], the “NanoBRET Fold Response” value came to 0.88 on TACR2 (TACR2, tracer 0.1μM); 1.04 on TACR2 (TACR2, tracer 1μM); 1.02 at SSTR4 (SSTR4, tracer 0.1μM); 1.00 at SSTR4 (SSTR4, tracer 1μM).
Turning to `CC(C)N(CC[C@H](c1ccccc1)c1cc(CCNC(=O)c2ccc(CNC(=O)CCc3ccc4n3[B-](F)(F)[N+]3=C(c5ccc[nH]5)C=CC3=C4)cc2)ccc1O)C(C)C` [Tolterodine-BZ-NB590], the “NanoBRET Fold Response” value at TACR3 (TACR3, tracer 0.1μM) is given as 0.98; on TACR3 (TACR3, tracer 1μM), 1.06; on TACR2 (TACR2, tracer 0.1μM), 1.38; on TACR2 (TACR2, tracer 1μM) it was 1.40; at SSTR4 (SSTR4, tracer 0.1μM) it was 0.99; on SSTR4 (SSTR4, tracer 1μM), 0.93.
